{"source": "patent US10806792B2", "about": "(Mayne Pharma International Pty Ltd., priority 2012, dated 2020)", "origin": "cited, not measured here", "key": {"[1]": {"test_system": "typical infecting organisms for specific superficial and systemic mycoses", "conditions": "for MIC RANGE: in µg/mL"}}, "note": "Read-outs that look alike come from different tables or passages of the source."}
{"smiles": "CCC(C)n1ncn(-c2ccc(N3CCN(c4ccc(OCC5COC(Cn6cncn6)(c6ccc(Cl)cc6Cl)O5)cc4)CC3)cc2)c1=O", "note": "(stereo not drawn) [itraconazole]", "values": [{"measurement": "absolute oral bioavailability", "setting": "100 mg dose of itraconazole oral solution", "result": "approximately 55%"}, {"measurement": "reduction of Cmax and AUC in the fasting state vs after a light meal", "setting": "in vivo", "result": "50-70%"}, {"measurement": "MIC RANGE", "setting": "[1]; A. flavus complex, Aspergillosis", "result": "0.03-8"}, {"measurement": "MIC RANGE", "setting": "[1]; A. nidulans complex, Aspergillosis", "result": "0.03-8"}, {"measurement": "MIC RANGE", "setting": "[1]; A. niger complex, Aspergillosis", "result": "0.03-8"}, {"measurement": "MIC RANGE", "setting": "[1]; A. terreus complex, Aspergillosis", "result": "0.03-1"}, {"measurement": "MIC RANGE", "setting": "[1]; C. albicans, Candidiasis", "result": "0.008-8"}, {"measurement": "MIC90", "setting": "[1]; C. glabrata, Candidiasis", "result": "MIC90 = 16"}, {"measurement": "MIC RANGE", "setting": "[1]; C. kruset, Candidiasis", "result": "0.008-8"}, {"measurement": "MIC RANGE", "setting": "[1]; C. parapsilosis, Candidiasis", "result": "0.016-2"}, {"measurement": "MIC RANGE", "setting": "[1]; C. tropicalis, Candidiasis", "result": "0.03-8"}, {"measurement": "MIC RANGE", "setting": "[1]; Epidermophyton floccosum, tinea corporis", "result": "0.01-8"}, {"measurement": "MIC RANGE", "setting": "[1]; Epidermophyton floccosum, tinea cruris", "result": "0.01-8"}, {"measurement": "MIC RANGE", "setting": "[1]; Epidermophyton floccosum, tinea manuum", "result": "0.01-8"}, {"measurement": "MIC RANGE", "setting": "[1]; Epidermophyton floccosum, tinea pedis", "result": "0.01-8"}, {"measurement": "MIC RANGE", "setting": "[1]; Epidermophyton floccosum, tinea unguium", "result": "0.01-8"}, {"measurement": "MIC RANGE", "setting": "[1]; Microsporum sp. (audounti, canis, gypseum, ferrugineum et al.), tinea capitis", "result": "0.01-4"}, {"measurement": "MIC RANGE", "setting": "[1]; Microsporum sp. (canis, et al.), tinea cruris", "result": "0.01-4"}, {"measurement": "MIC RANGE", "setting": "[1]; Microsporum sp. (canis, et al.), tinea unguium", "result": "0.01-4"}, {"measurement": "MIC RANGE", "setting": "[1]; Microsporum sp. (canis, gypseum, et al.), tinea corporis", "result": "0.01-4"}, {"measurement": "MIC RANGE", "setting": "[1]; Microsporum sp. (canis, gypseum, et al.), tinea pedis", "result": "0.01-4"}, {"measurement": "MIC RANGE", "setting": "[1]; Trichophyton sp. (rubrum, interdigitale, mentagrophytes.), tinea manuum", "result": "0.01-8"}, {"measurement": "MIC RANGE", "setting": "[1]; Trichophyton sp. (rubrum, tonsurans interdigitale, mentagrophytes, concentricim, violaceum et al.), tinea corporis", "result": "0.01-8"}, {"measurement": "MIC RANGE", "setting": "[1]; Trichophyton sp. (rubrum, tonsurans interdigitale, mentagrophytes, et al.), tinea cruris", "result": "0.01-8"}, {"measurement": "MIC RANGE", "setting": "[1]; Trichophyton sp. (rubrum, tonsurans interdigitale, mentagrophytes, et al.), tinea pedis", "result": "0.01-8"}, {"measurement": "MIC RANGE", "setting": "[1]; Trichophyton sp. (rubrum, tonsurans interdigitale, mentagrophytes, et al.), tinea unguium", "result": "0.01-8"}, {"measurement": "MIC RANGE", "setting": "[1]; Trichophyton sp. (tonsurans violaceum, soudanese, schoenleinii, mentagrophytes, verrucossum, et al.), tinea capitis", "result": "0.01-8"}]}
